Measured values taken from ChEMBL document CHEMBL1126955, “Substituted thiopyrano[2,3,4-c,d]indoles as potent, selective, and orally active inhibitors of 5-lipoxygenase. Synthesis and biological evaluation of L-691,816” (J Med Chem, 1993).

How the values were obtained:
Monkey [1] = assay: Changes in airway resistance after administration of 0.3 mg/kg in squirrel monkey; format: functional
Monkey [2] = assay: Changes in dynamic compliance after administration of 0.3 mg/kg in squirrel monkey (not significant); format: functional
Rattus norvegicus [3] = species on record: Rattus norvegicus; assay: Tested for antigen-induced dyspnea in hyperreactive rat model (2 hr pretreatment); format: functional
[4] = target: T1, Arachidonate 12-lipoxygenase (Sus scrofa, UniProt P16469); assay: Tested for inhibition against porcine 12-LO
T1 sequence (P16469 whole entry): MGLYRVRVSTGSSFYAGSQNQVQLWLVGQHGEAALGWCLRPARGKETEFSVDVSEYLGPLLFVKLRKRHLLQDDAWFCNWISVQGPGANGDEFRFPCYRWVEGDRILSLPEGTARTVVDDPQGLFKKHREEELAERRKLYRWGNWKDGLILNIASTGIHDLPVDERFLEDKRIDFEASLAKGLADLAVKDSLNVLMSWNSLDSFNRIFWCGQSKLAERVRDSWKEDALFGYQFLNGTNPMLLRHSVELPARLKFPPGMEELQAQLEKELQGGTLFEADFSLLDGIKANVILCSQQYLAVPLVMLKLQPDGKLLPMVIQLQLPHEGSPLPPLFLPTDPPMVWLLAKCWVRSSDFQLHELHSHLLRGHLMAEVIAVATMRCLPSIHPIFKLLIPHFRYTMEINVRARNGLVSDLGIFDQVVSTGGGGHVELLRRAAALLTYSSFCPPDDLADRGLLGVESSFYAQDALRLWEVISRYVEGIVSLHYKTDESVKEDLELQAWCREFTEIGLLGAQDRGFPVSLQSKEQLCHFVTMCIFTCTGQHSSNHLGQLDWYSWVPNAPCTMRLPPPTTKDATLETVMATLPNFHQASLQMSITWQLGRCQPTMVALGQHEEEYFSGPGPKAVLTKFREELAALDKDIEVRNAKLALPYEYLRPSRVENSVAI

[5] = target: T2, Polyunsaturated fatty acid 5-lipoxygenase (Homo sapiens, UniProt P09917); assay: Tested for inhibition of 5-HPETE production by human 5-LO
T2 sequence (P09917 whole entry): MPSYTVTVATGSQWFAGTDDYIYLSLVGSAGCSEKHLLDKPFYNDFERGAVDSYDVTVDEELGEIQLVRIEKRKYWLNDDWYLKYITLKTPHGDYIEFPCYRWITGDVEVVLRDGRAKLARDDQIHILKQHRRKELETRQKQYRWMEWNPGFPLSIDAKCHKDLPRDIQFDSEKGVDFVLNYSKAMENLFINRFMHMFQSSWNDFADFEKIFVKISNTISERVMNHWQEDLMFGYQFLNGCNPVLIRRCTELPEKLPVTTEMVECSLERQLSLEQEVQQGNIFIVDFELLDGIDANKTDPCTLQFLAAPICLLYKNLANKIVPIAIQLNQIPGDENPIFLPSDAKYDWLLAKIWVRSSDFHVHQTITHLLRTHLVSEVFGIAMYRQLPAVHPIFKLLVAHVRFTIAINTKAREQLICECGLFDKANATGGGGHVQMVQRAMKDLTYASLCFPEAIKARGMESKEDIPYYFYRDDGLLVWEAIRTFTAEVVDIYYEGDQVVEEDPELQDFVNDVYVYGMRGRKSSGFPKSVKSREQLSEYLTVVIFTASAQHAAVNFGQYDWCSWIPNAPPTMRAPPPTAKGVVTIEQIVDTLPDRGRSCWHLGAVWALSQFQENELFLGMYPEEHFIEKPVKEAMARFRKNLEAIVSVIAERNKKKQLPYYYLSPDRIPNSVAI

[6] = target: T3, Polyunsaturated fatty acid 5-lipoxygenase (Rattus norvegicus, UniProt P12527); assay: Tested for inhibition of 5-HPETE production by rat 5-LO; value ranges from 16-36 nM
T3 sequence (P12527 whole entry): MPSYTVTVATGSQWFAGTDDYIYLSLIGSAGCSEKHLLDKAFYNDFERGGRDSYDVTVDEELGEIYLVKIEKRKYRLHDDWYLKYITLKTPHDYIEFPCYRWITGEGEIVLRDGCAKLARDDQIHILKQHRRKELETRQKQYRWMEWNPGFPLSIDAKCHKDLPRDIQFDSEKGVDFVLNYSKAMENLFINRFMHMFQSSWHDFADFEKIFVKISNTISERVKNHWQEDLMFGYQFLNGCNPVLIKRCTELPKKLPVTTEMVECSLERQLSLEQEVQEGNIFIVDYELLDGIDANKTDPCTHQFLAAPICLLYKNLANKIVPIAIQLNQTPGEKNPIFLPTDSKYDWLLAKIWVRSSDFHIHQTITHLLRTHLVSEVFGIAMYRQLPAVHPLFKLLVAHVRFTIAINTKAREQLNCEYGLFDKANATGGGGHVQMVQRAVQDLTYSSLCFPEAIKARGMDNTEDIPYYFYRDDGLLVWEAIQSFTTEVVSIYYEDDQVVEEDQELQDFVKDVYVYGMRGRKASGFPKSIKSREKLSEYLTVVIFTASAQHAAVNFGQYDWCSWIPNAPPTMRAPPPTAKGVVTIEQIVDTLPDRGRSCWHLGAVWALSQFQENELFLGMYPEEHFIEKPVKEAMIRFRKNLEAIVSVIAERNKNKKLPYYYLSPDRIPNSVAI

[7] = target: T3, Polyunsaturated fatty acid 5-lipoxygenase; assay: In vitro test for inhibition of 5-lipoxygenase in cell-free preparations from rat PMN leukocytes
[8] = Peak concentration in rat plasma was determined; format: ADME, organism-based
[9] = Bioavailability in rat (dose 20 mg/kg p.o. in 1% methocel, and 5 mg/kg i.v. in PEG400); format: ADME, organism-based; conditions: in vivo, po
[10] = Rate of enzyme inactivation for the compound was determined
[11] = target: T2, Polyunsaturated fatty acid 5-lipoxygenase; assay: In vitro inhibition of LTB4 biosynthesis in [Ca(2+)]-ionophore-activated human polymorphonuclear leukocytes; format: functional
Monkey [12] = assay: Changes in airway resistance after administration of 1 mg/kg in squirrel monkey; format: functional
Monkey [13] = assay: Changes in dynamic compliance after administration of 0.3 mg/kg in squirrel monkey; format: functional
Monkey [14] = assay: Changes in dynamic compliance after administration of 1 mg/kg in squirrel monkey; format: functional
[15] = target: Prostaglandin G/H synthase (cyclooxygenase) (Ovis aries) (UniProt P05979+P79208); assay: Tested for inhibition against ram seminal vesicle Prostaglandin G/H synthase at a concentration of 10 uM; format: tissue-based
Sequence of Prostaglandin G/H synthase (cyclooxygenase) (Ovis aries) (P05979 whole entry, looked up): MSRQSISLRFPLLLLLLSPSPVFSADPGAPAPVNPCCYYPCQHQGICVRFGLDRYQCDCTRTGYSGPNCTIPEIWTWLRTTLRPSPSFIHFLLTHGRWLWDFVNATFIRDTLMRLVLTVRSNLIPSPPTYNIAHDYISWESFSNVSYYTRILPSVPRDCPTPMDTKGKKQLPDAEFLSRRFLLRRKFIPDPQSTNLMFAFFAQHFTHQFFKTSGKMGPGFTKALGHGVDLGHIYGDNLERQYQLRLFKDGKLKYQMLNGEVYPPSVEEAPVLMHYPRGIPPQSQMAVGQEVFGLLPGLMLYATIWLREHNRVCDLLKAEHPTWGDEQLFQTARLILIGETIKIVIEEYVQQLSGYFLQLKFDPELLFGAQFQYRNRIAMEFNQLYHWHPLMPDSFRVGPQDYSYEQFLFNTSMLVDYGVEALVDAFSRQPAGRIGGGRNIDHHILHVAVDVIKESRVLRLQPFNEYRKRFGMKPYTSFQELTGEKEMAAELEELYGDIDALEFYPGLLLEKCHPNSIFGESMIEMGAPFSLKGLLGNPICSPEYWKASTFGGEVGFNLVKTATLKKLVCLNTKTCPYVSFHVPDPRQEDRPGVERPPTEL
Sequence of Prostaglandin G/H synthase (cyclooxygenase) (Ovis aries) (P79208 whole entry, looked up): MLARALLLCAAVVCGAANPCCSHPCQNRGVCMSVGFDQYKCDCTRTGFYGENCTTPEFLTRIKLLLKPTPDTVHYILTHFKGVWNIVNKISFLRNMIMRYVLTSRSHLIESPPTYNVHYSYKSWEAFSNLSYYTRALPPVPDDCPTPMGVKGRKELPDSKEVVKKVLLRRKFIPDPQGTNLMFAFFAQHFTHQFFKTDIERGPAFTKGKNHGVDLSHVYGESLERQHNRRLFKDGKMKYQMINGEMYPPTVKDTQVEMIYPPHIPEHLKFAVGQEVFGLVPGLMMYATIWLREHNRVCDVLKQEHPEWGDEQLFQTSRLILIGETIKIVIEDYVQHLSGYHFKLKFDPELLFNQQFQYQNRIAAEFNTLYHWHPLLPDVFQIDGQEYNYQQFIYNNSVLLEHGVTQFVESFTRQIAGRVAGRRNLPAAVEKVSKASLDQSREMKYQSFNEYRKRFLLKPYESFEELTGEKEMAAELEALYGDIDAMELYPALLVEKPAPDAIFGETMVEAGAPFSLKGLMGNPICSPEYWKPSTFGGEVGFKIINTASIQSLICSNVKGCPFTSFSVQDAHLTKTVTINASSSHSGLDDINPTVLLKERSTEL

Homo sapiens = species on record: Homo sapiens; assay: Tested for inhibition of leukotriene B4 synthesis in human PMN leukocytes at 5*10e5 cells/mL concentration; format: functional, cell-based
Rattus norvegicus [16] = species on record: Rattus norvegicus; assay: Tested for antigen-induced dyspnea in hyperreactive rat model (2 hours pretreatment); format: functional
Rattus norvegicus [17] = species on record: Rattus norvegicus; assay: Tested for inhibition of leukotriene B4 in rat pleurisy model (8 hours pretreatment); format: functional
Rattus norvegicus [18] = species on record: Rattus norvegicus; assay: Tested for ex-vivo inhibition of leukotriene B4 biosynthesis in rat whole blood; format: functional, organism-based
Rattus norvegicus [19] = species on record: Rattus norvegicus; assay: Tested for percent inhibition of dyspnea duration in hyperreactive rat model; format: functional
[20] = Maximum time taken for compound to reach peak concentration in rat plasma; format: ADME, organism-based
[21] = Maximum time taken for compound to reach peak concentration in rat plasma; value ranges from 1-2 hrs; format: ADME, organism-based

**Q.** Which RL (Monkey [1]) does the source give for `CC(C)(C)Sc1c(CC(C)(C)C(=O)O)n(Cc2ccc(Cl)cc2)c2ccc(OCc3ccc4ccccc4n3)cc12` [QUIFLAPON] here?
**A.** 44%

**Q.** And the Cdyn (Monkey [2])?
**A.** 46%

**Q.** And the ED50 (Rattus norvegicus [3])?
**A.** 0.16 mg/kg

**Q.** For `CC1Cc2c(OCc3ccc(-c4ccccc4)cn3)ccc3c2c(c(CC(C)(C)Cc2nnn[nH]2)n3Cc2ccc(Cl)cc2)S1` (stereo not drawn), which IC50 [4] is on record?
**A.** 2800 nM

**Q.** And the IC50 [5]?
**A.** 75 nM

**Q.** And the IC50 [6]?
**A.** 16 nM

**Q.** And the IC50 [7]?
**A.** 17 nM

**Q.** And the Cmax [8]?
**A.** 10 µM

**Q.** What about the bioavailability [9] of the same compound?
**A.** 40%

**Q.** What about the kinact [10] of the same compound?
**A.** 0.009 s⁻¹

**Q.** And the IC50 [11]?
**A.** 8 nM

**Q.** And the RL (Monkey [1])?
**A.** 17.5%

**Q.** What about the RL (Monkey [12]) of the same compound?
**A.** 12.6%

**Q.** And the Cdyn (Monkey [13])?
**A.** -11.2%

**Q.** What about the Cdyn (Monkey [14]) of the same compound?
**A.** -9.2%

**Q.** And the inhibition [15]?
**A.** 59%

**Q.** And the IC50 (Homo sapiens)?
**A.** 10 nM

**Q.** And the ED50 (Rattus norvegicus [16])?
**A.** 0.1 mg/kg

**Q.** And the ED50 (Rattus norvegicus [17])?
**A.** 1.9 mg/kg

**Q.** And the IC50 (Rattus norvegicus [18])?
**A.** 1500 nM

**Q.** And the Inhibition (Rattus norvegicus [19])?
**A.** 70%

**Q.** And the Tmax [20]?
**A.** 6 h

**Q.** For `CC1Cc2c(CCc3ccc(-c4ccccc4)cn3)ccc3c2c(c(CC(C)(C)Cc2nnn[nH]2)n3Cc2ccc(Cl)cc2)S1` (stereo not drawn), which IC50 [7] is on record?
**A.** 16 nM

**Q.** What about the Cmax [8] of the same compound?
**A.** 8 µM

**Q.** What about the bioavailability [9] of the same compound?
**A.** 36%

**Q.** And the Tmax [21]?
**A.** 1 h

**Q.** And the IC50 [11]?
**A.** 3 nM

**Q.** And the Inhibition (Rattus norvegicus [19])?
**A.** 37%
